The conditions of series [1]: EPA (USA) and EEA (UE); cited from earlier work.
In series [2] the test system is cheloid. The experiment in a line: Cheloid therapy on wounds in the distal part of horse's limb. It is filed as in vivo, horses. The settings on record: composition versus Salicylic acid therapy. The source says: Cheloid is a disturbance of the granulation tissue due to a hyperproliferation of the fibroblasts. These cells stop the mitogenic activity when enough extracellular matrix fills the wound crater. Collagen fibrils of the matrix start to retract anchoring the wounds edges to fibroblasts. When the collagen fibrils start to retract, fibroblasts stop to secrete the matrix (antimitogenic effect). Most of them undergo apoptosis (cell death without inducing an inflammatory reaction) and quiescence (sleeping fibroblasts), while only a small part undergo the transformation into myofibroblasts (which play a role in the last phases of the wound healing). Newly formed capillary vessels are absorbed and disappear in synchrony with the fibroblasts. Keratinocytes on the top of the healed area start to re-epithelialize the area and the process is complete: In horse, researchers have identified two orders of problems responsible for the high incidence of cheloid pathology: 1) exaggerated tension stimuli at the levels of the distal part of the horses legs, due too scarcity of muscle mass and hypodermal fat and 2) slow capacity of the keratinocytes to obtain the re-epithelialization of the granulated area maybe due to a scarcity of the signals responsible for the antimitogenic effects on fibroblasts. […]

The structures appear in SMILES notation.

Turning to `C/C=C(\C)C(=O)O[C@H]1C[C@@H](OC(C)=O)[C@@]2(C(=O)OC)CO[C@H]3[C@@H](O)[C@@](C)([C@]45O[C@@]4(C)[C@@H]4C[C@H]5O[C@@H]5OC=C[C@@]54O)[C@H]4[C@]1(CO[C@]4(O)C(=O)OC)[C@@H]32` [Azadirachtin A], the class of toxicity result in series [1] is “IVth”.

Consider `O=C(O)c1ccccc1O` [Salicylic acid, salicylic acid], for which the “time of healing / effectiveness in comparison of therapies” value in series [2] was “not as effective as the therapy with the present composition”.

These data come from patent publication US11376298B2, “Composition comprising natural substances having healing, repellent and biocidal properties for the treatment and the cure of external wounds” (priority 2004, dated 2022).
